# Source: paper PMC12746157, “Light-Regulated Agonists Spatiotemporally Activating the Vitamin D Receptor Mitigate Psoriasis-like Inflammation in Mice without Inducing Hypercalcemia” (ACS Central Science, 2025)
# Tests used:
# [1] = Proportions of cis and trans at the photostationary state in DMSO from absorbance spectra (Ernst Fischer method); format: physicochemical
# Experimental: 2. Photochemical characterization.
# A 50 µM solution of each compound in DMSO was dispensed into a transparent 96-well plate (200 µL per well). The absorption spectra were recorded from 300 to 600 nm with 2 nm fixed intervals using a Tecan Spark 20M Multimode microplate reader. Initial measurements were performed in the dark, followed by spectra acquired immediately after each 3 min period of light irradiation at different wavelengths using 96-well LED array plates (LEDA Teleopto). Theoretical absorbance spectra corresponding to the pure cis isomer (100%) of each compound were calculated in order to obtain the theoretical percentage of cis isomer at each wavelength, according to the method described by Ernst Fischer (1967). […]
# Table S6. Proportions of cis and trans at the photostationary state in DMSO. […]
# VDR = VDR (Homo sapiens, UniProt P11473); test: Luminescent proximity homogeneous assay (AlphaScreen): interaction of purified VDR, RxR and TRAP220 coactivator fragment; format: biochemical; details: for EC50 / Emax: after illumination (365 nm) for 3 min, mean ± SEM; for EC50: n >= 3, read-out: Activity (pEC50) (converted); for Emax: normalized to maximum response of LSN2148936 (100%)
# Experimental: The activity of all molecules was evaluated using a luminescent proximity homogeneous assay to study interactions between purified VDR, RxR and a fragment of the transcriptional coactivator TRAP220 (Supporting Information). This method allowed us to monitor the interaction between TRAP220 and the activated VDR-RxR heterodimer, which is of mechanistic and physiological significance. Both the activation of VDR and the VDR-RxR heterodimer formation are necessary to promote the whole complex association. This system efficiently includes conformational events of the receptor upon activation that go beyond a simple binding measurement. […]
# The activity of all molecules was evaluated using an in-vitro luminescent proximity homogeneous assay by using the Alphascreen technology (Cat No. 6760619R, Perkin Elmer, now Revvity). In a transparent 96-well preplate, 10X concentrations of the compounds were prepared in assay buffer (0.1% bovine serum albumin, 2 mM 1,4-dithiothreitol, 25 mM HEPES and 100 mM NaCl; pH 7.3). LSN2148936 was used as positive control. Purified histidine-tagged VDR (44 µM), flag-RxRa (5.7 µM), biotin tagged TRAP220 transcriptional coactivator (500 µM), and the donor and acceptor beads from the AlphaScreen kit (2 µL/mL each), were diluted in assay buffer. In the dark, 6 µL/well of each test compound were pipetted on a white, shallow 96-well ProxiPlateTM […]
# (Perkin Elmer, now Revvity, Cat.No. 6006290) in duplicate. Immediately, 54 µL of the protein solution were added and the plate was covered and incubated for 30 min at room temperature in the dark. Meanwhile, the plate with the 10X dilutions was illuminated at 365 nm for 3 min in a 96-well DED array plate (LEDA Teleopto), to allow the photoconversion of the molecules to their cis configuration. The illuminated compounds were mixed with the protein solution and incubated as described above for the plate in the dark. After the incubation time, the counts of both, the dark and illuminated plates, were measured in a Tecan Spark 20M Multimode plate reader with defined settings (excitation: 680 nm, emission: 520-620 nm, excitation time: 100ms, integration time: 300 ms). Biotinylated-His6 peptide (PerkinElmer) was used as a quality control reagent for AlphaScreen® assays and to evaluate compound interaction with the method. The raw data were normalized to the effect of the buffer (0%) and the maximum response obtained with LSN2148936 (100%). Dose-response curves and EC50 values were calculated with Graphpad software. Each experiment was performed in triplicate, with 2 replicates per plate.
# 4. Hydrogen/deuterium exchange coupled to mass spectrometry (HDX-MS)
# The HDX-MS experiments were performed with an in-house automated modular system interfaced with an Orbitrap Exploris 480 mass spectrometer.1 Two inter-day experiments were conducted: one in the dark (first day) and one illuminated with 365 nm light (second day). Sample preparation and on-exchange reactions were performed on opaque plates (VWR® Real-Time […]
# mm, Part Nº BC5226) light source was positioned above the Tecan system used for sample preparation. The distance between the UV light and the opaque plates was 80 cm. The 365 nm light illuminated the sample preparation process and the on-exchange reaction on the second day.
# A 10 µM VDR-LBD protein stock solution was prepared in 20 mM HEPES buffer (with 150 mM NaCl, 10 mM D-L Methionine and 5 mM DTT) at pH 7.5. The compound 11b was prepared at 10 mM in DMSO. The protein: compound-complex (1:10 molar ratio) was pre-incubated for 1h before the first on-exchange reaction. The HDX reaction was initiated by a 5-fold dilution of the protein stock solution, in the presence and absence of compound 11b, in the corresponding Deuterated buffer at room temperature. Samples were prepared in parallel with three replicates of […]
# time point, HDX reactions were quenched with a solution of 3 M Urea and 1% TFA (pH 2.5) followed by online proteolysis with an in-house Pepsin immobilized column and desalting […]
# Chain of VDR (P11473 whole entry, the tested form may be a part): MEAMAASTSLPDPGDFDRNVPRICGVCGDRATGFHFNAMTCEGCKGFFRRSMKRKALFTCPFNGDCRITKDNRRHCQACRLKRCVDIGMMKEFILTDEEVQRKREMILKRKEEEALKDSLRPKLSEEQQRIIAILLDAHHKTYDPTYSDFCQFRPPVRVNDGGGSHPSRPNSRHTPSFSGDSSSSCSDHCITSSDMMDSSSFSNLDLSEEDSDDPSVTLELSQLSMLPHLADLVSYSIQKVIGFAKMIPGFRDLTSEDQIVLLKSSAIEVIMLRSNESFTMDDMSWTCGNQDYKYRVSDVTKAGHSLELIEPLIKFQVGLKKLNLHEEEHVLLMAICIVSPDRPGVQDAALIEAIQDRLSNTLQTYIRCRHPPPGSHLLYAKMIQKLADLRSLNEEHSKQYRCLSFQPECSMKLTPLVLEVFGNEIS
# Chain of VDR (P19793 whole entry partner, the tested form may be a part): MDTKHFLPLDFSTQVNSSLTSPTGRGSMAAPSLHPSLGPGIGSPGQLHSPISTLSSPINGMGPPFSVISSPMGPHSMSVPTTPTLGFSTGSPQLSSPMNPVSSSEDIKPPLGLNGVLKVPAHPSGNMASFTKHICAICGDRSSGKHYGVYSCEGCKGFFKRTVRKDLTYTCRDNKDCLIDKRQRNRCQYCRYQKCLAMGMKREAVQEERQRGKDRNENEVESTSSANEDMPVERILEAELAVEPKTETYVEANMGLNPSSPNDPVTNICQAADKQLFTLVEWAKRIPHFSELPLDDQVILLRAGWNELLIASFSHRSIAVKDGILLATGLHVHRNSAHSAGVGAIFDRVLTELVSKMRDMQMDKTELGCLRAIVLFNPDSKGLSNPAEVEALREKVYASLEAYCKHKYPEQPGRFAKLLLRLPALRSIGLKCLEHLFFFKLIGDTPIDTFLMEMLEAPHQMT
# Chain of VDR (Q15648 whole entry partner, the tested form may be a part): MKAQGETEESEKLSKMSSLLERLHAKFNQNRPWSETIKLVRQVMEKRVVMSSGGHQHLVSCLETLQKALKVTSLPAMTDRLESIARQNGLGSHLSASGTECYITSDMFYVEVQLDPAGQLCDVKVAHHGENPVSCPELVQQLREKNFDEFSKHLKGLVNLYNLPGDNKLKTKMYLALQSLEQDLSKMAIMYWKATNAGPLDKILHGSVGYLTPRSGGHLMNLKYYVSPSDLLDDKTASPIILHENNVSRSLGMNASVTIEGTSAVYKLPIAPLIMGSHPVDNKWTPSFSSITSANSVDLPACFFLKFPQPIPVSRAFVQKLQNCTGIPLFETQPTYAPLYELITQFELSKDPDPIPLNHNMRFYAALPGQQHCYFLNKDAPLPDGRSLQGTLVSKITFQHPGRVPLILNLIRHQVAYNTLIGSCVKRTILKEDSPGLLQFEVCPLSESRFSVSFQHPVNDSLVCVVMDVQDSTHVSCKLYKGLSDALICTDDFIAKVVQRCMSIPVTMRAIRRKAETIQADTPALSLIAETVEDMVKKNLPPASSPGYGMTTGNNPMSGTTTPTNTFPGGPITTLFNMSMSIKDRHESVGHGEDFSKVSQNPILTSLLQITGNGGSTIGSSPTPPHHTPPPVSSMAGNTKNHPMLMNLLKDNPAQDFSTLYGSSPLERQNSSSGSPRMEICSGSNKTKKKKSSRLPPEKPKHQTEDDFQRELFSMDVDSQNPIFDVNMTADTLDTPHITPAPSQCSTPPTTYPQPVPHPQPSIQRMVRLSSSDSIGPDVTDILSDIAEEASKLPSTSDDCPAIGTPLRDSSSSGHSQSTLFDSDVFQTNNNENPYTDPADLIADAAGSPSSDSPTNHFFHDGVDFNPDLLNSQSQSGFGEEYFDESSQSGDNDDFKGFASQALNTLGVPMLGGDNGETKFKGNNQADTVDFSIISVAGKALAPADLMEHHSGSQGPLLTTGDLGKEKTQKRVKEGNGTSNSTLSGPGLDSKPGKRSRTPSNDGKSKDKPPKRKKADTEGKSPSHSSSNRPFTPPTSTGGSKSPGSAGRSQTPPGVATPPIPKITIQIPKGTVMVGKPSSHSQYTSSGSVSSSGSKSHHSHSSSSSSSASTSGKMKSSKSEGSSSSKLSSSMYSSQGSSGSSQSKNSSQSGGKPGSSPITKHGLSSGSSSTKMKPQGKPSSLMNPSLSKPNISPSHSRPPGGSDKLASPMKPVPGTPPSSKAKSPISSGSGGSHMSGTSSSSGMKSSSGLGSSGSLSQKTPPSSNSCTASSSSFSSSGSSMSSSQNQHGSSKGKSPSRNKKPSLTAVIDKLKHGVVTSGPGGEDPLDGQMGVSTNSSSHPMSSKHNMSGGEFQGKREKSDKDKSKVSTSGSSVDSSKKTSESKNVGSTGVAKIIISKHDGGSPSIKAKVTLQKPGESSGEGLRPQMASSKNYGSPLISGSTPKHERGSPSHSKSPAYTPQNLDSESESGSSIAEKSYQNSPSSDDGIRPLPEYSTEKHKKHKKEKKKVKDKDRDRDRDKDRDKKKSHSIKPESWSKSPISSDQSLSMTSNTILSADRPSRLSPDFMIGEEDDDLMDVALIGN
smiles,measurement,setting,value
Cc1cc(OCC(O)C(C)(C)C)ccc1/N=N/c1cccc(-c2ccc(CO)cc2C)c1 (stereo not drawn) [Compound 12d],%cis at the photostationary state,[1]; 365 nm,"96,92%"
same,%trans at the photostationary state,[1]; 365 nm,"3,08%"
same,%cis at the photostationary state,[1]; 380 nm,"95,77%"
same,%trans at the photostationary state,[1]; 380 nm,"4,23%"
same,%cis at the photostationary state,[1]; 405 nm,"63,77%"
same,%trans at the photostationary state,[1]; 405 nm,"36,23%"
same,%cis at the photostationary state,[1]; 420 nm,"60,13%"
same,%trans at the photostationary state,[1]; 420 nm,"39,87%"
same,%cis at the photostationary state,[1]; 470 nm,"32,14%"
same,%trans at the photostationary state,[1]; 470 nm,"67,86%"
same,%cis at the photostationary state,[1]; 500 nm,"33,18%"
same,%trans at the photostationary state,[1]; 500 nm,"66,82%"
same,%cis at the photostationary state,[1]; 530 nm,"29,47%"
same,%trans at the photostationary state,[1]; 530 nm,"70,53%"
same,EC50,VDR,95.5 nM
same,Emax,VDR,61 ± 2.01%
COC(=O)c1ccc(-c2cccc(/N=N/c3ccc(OCC(O)C(C)(C)C)c(C)c3)c2)c(C)c1 (stereo not drawn) [Compound 10c],%cis at the photostationary state,[1]; 365 nm,"97,00%"
same,%trans at the photostationary state,[1]; 365 nm,"3,00%"
same,%cis at the photostationary state,[1]; 380 nm,"95,62%"
same,%trans at the photostationary state,[1]; 380 nm,"4,38%"
same,%cis at the photostationary state,[1]; 405 nm,"61,14%"
same,%trans at the photostationary state,[1]; 405 nm,"38,86%"
same,%cis at the photostationary state,[1]; 420 nm,"59,71%"
same,%trans at the photostationary state,[1]; 420 nm,"40,29%"
same,%cis at the photostationary state,[1]; 470 nm,"30,53%"
same,%trans at the photostationary state,[1]; 470 nm,"69,47%"
same,%cis at the photostationary state,[1]; 500 nm,"26,82%"
same,%trans at the photostationary state,[1]; 500 nm,"73,18%"
same,%cis at the photostationary state,[1]; 530 nm,"21,34%"
same,%trans at the photostationary state,[1]; 530 nm,"78,66%"
same,EC50,VDR,1860 nM
same,Emax,VDR,29 ± 4.31%
Cc1cc(/N=N/c2cccc(-c3ccc(C(=O)O)cc3C)c2)ccc1OCC(O)C(C)(C)C (stereo not drawn) [Compound 11c],%cis at the photostationary state,[1]; 365 nm,"97,22%"
same,%trans at the photostationary state,[1]; 365 nm,"2,78%"
same,%cis at the photostationary state,[1]; 380 nm,"94,72%"
same,%trans at the photostationary state,[1]; 380 nm,"5,28%"
same,%cis at the photostationary state,[1]; 405 nm,"61,36%"
same,%trans at the photostationary state,[1]; 405 nm,"38,64%"
same,%cis at the photostationary state,[1]; 420 nm,"59,26%"
same,%trans at the photostationary state,[1]; 420 nm,"40,74%"
same,%cis at the photostationary state,[1]; 470 nm,"31,49%"
same,%trans at the photostationary state,[1]; 470 nm,"68,51%"
same,%cis at the photostationary state,[1]; 500 nm,"28,18%"
same,%trans at the photostationary state,[1]; 500 nm,"71,82%"
same,%cis at the photostationary state,[1]; 530 nm,"22,70%"
same,%trans at the photostationary state,[1]; 530 nm,"77,30%"
same,EC50,VDR,575 nM
same,Emax,VDR,68 ± 3.73%
Cc1cc(/N=N/c2cccc(-c3ccc(C(=O)O)cc3)c2)ccc1OCC(O)C(C)(C)C (stereo not drawn) [Compound 11a],%cis at the photostationary state,[1]; 365 nm,"94,52%"
same,%trans at the photostationary state,[1]; 365 nm,"5,48%"
same,%cis at the photostationary state,[1]; 380 nm,"92,81%"
same,%trans at the photostationary state,[1]; 380 nm,"7,19%"
same,%cis at the photostationary state,[1]; 405 nm,"60,54%"
same,%trans at the photostationary state,[1]; 405 nm,"39,46%"
same,%cis at the photostationary state,[1]; 420 nm,"58,09%"
same,%trans at the photostationary state,[1]; 420 nm,"41,91%"
same,%cis at the photostationary state,[1]; 470 nm,"29,80%"
same,%trans at the photostationary state,[1]; 470 nm,"70,20%"
same,%cis at the photostationary state,[1]; 500 nm,"26,59%"
same,%trans at the photostationary state,[1]; 500 nm,"73,41%"
same,%cis at the photostationary state,[1]; 530 nm,"21,22%"
same,%trans at the photostationary state,[1]; 530 nm,"78,78%"
same,EC50,VDR,1260 nM
same,Emax,VDR,60 ± 1.26%
same,Activity in the dark,"VDR; dark (trans), concentrations up to 10 μM",small increase in the activity
Cc1cc(/N=N/c2cccc(-c3ccc(CO)cc3)c2)ccc1OCC(O)C(C)(C)C (stereo not drawn) [Compound 12a],%cis at the photostationary state,[1]; 365 nm,"97,06%"
same,%trans at the photostationary state,[1]; 365 nm,"2,94%"
same,%cis at the photostationary state,[1]; 380 nm,"95,61%"
same,%trans at the photostationary state,[1]; 380 nm,"4,39%"
same,%cis at the photostationary state,[1]; 405 nm,"63,64%"
same,%trans at the photostationary state,[1]; 405 nm,"36,36%"
same,%cis at the photostationary state,[1]; 420 nm,"60,45%"
same,%trans at the photostationary state,[1]; 420 nm,"39,55%"
same,%cis at the photostationary state,[1]; 470 nm,"33,06%"
same,%trans at the photostationary state,[1]; 470 nm,"66,94%"
same,%cis at the photostationary state,[1]; 500 nm,"34,03%"
same,%trans at the photostationary state,[1]; 500 nm,"65,97%"
same,%cis at the photostationary state,[1]; 530 nm,"30,20%"
same,%trans at the photostationary state,[1]; 530 nm,"69,80%"
same,EC50,VDR,339 nM
same,Emax,VDR,31 ± 3.13%
